Where two headings read alike, the source gives them in different places.
Legend:
insulin receptor B = target: T1, insulin receptor B (Homo sapiens, UniProt P06213); assay: Insulin receptor B autophosphorylation in transfected cells (Cisbio Phospho-IR beta Tyr1150/1151 kit); type: cell-based; conditions: for Relative HI activity: relative to human insulin; for Relative 0% HSA activity: 1.5% HSA relative to 0% HSA
T1 construct: expressed in transfected cells
Protocol: The phosphorylation level of insulin receptor B was detected by Cisbio's Phospho-IR beta (Tyr1150/1151) kit method to evaluate the biological activity of insulin. The cells were seeded into a 96-well plate overnight, and after the serum in the medium was removed, 40 μl of serum-free medium was added to culture for about 4 h. Then a dilution series of insulin derivatives were prepared with blank solution (0.6% casein, 0.06 mg/mL EDTA, 1×DPBS) and incubated with cells in the 96-well plate for 5 min in a CO2 incubator (37° C., 5% CO2). The liquid in the 96-well plate was poured off, 100 µL of a mixture of lysis buffer (2% Triton X-100, 150 mM NaCl, 50 mM HEPES, pH=7) and inhibitor (Blocking Reagent in the kit) was added to lyse the cells, then the plate was shaken at 350 rpm for 30 min. Relative activity (in percent (%)) was assessed by measuring insulin receptor phosphorylation levels in the supernatant after cell lysis and fitting a curve to the data using nonlinear regression in Graphpad Prism 5 software. Related assays were also used, in which the blank solution also contained 1.5% HSA to simulate physiological conditions. Changes in the phosphorylation levels of the insulin-activated insulin receptors of the invention were detected as an indirect reflection of the albumin binding activity.

[1] = rat, in vivo, iv, 10 nmol/kg
normal C57BL/6 mice = assay: Hypoglycemic effect, single subcutaneous administration to normal C57BL/6 mice; type: in vivo; parameters: blood glucose: unit not given here; conditions: for blood glucose: Mean ± SEM, n = 6; for blood glucose compared with the control group: 1 h after single S.C. administration
Protocol: SPF grade C57BL/6 mice were reared in a suitable rearing box in a barrier environment, with a rearing temperature of 20-26° C., a humidity of 40-70%, a time between day and night of 12 h/12 h, and the mice had free access to standard food and autoclaved sterilization water. After a 3-day quarantine period and a 2-day acclimation period, random blood glucose was measured and mice were weighed. Mice were divided into 6 groups according to random blood glucose and body weight.
Single subcutaneous administration (S.C.) was used to administer the corresponding vehicle or drug. The control group was administered the vehicle PBS without fasting during the whole process, and the animals were allowed to eat and drink freely. Random blood glucose values of C57 mice were measured before administration and at 0.25, 0.5, 1, 2, 4, 6, 8, 10, 24, 48, 54, 72 and 96 hours after administration.
(§1) All raw data were entered into Excel files and expressed as Mean±SEM. Statistical analysis of data was performed using Graphpad Prism 7.0 software, one-way or two-way ANOVA comparison method, and P<0.05 was used as the criterion for significant differences.

[2] = mouse, in vivo, sc, 10 nmol/kg
[3] = rat, in vivo, sc, 10 nmol/kg
[4] = test system: STZ-induced type I diabetes mellitus (T1DM) C57BL/6 mice; assay: Hypoglycemic effect, repeated administration (four times) to STZ-induced T1DM C57BL/6 mice (Example 5); type: in vivo; parameters: key to random blood glucose: random blood glucose in mmol/L, Mean±SEM; conditions: for random blood glucose: 1400 nmol/Kg S.C. four times
Protocol: SPF grade C57BL/6 mice were reared in a suitable rearing box in a barrier environment, with a rearing temperature of 20-26° C., a humidity of 40-70%, a time between day and night of 12 h/12 h, and the mice had free access to standard food and autoclaved sterilization water. After a 3-day quarantine period and a 2-day acclimation period, the mice were fasted for 12 h, and the mice were injected intraperitoneally with streptozotocin solution (STZ, 13 mg/mL, in citrate buffer) or citrate buffer at 130 mg/kg (control group). 3 Days and 7 days after administration of streptozotocin, random blood glucose and fasting blood glucose were detected, and the random blood glucose value above 25 mmol/L and fasting blood glucose value above 11.1 mmol/L were selected as T1DM model mice for follow-up experiments. On the day before administration, random blood glucose was monitored and mice were weighed. Mice were divided into 4 groups according to random blood glucose and body weight.
Subcutaneous administration (S.C.) was used to administer the corresponding vehicle or drug, once every 4-5 days, for a total of 4 administrations. During the experiment, the animals were allowed to eat and drink water freely. The random blood glucose before the first administration, and 0.25, 0.5, 1, 2, 4, 6, 8, 10, 24, 48, 72, and 96 h after administration were assessed, as well as the random blood glucose before the second, third and fourth administration, and 1, 2, 4, 6, 8, 24, 48, 72, 96 and 120 h after administration.
as §1

[5] = dog, in vivo, iv, 10 nmol/kg
Protocol: Two beagle dogs, one in each group, a double-cycle crossover design was used, with a washout period of 1 week, and a single dose of 10 nmol/kg of Icodec or Insulin-a10 was administered to the lateral small saphenous vein of the hind limb in each cycle, the blood was collected and plasma was centrifuged at 0.083, 0.25, 0.5, 1, 2, 6, 8, 24, 30, 48, 72 and 96 h after administration, the concentration of Icodec or Insulin-a10 in the plasma was detected.

[6] = test system: STZ-induced type I diabetes mellitus (T1DM) C57BL/6 mice; assay: Hypoglycemic effect, repeated administration (three times) to STZ-induced T1DM C57BL/6 mice (Example 6); type: in vivo; parameters: key to random blood glucose: blood glucose in mmol/L; conditions: Mean ± SEM, n = 7
Protocol: SPF grade C57BL/6 mice were reared in a suitable rearing box in a barrier environment, with a rearing temperature of 20-26° C., a humidity of 40-70%, a time between day and night of 12 h/12 h, and the mice had free access to standard food and autoclaved sterilization water. After the 3-day quarantine period and the 2-day acclimation period, the mice were fasted for 12 h, and the mice were injected intraperitoneally with streptozotocin solution (STZ, 13 mg/mL, in citrate buffer) at 130 mg/kg. 3 Days and 7 days after administration of streptozotocin, random blood glucose and fasting blood glucose were detected, and the random blood glucose value above 25 mmol/L and fasting blood glucose value above 11.1 mmol/L were selected as T1DM model mice for follow-up experiments. On the day before administration, random blood glucose was monitored and mice were weighed. Mice were divided into 6 groups according to random blood glucose and body weight.
Subcutaneous administration (S.C.) was used to administer the corresponding vehicle or drug, once every 4-5 days, for a total of 3 administrations. During the experiment, the animals were allowed to eat and drink water freely. The random blood glucose before the first administration, and 0.25, 0.5, 1, 2, 4, 6, 8, 10, 24, 48, 72, and 96 h after administration were assessed, as well as the random blood glucose before the second and third administration, and 0.5, 1, 2, 6, 24, 48, 72, 96 and 120 h after administration.
as §1

[7] = single S.C., Degludec 200 nmol/Kg, others 1400 nmol/Kg

T1 sequence (P06213 28-758 limits assumed): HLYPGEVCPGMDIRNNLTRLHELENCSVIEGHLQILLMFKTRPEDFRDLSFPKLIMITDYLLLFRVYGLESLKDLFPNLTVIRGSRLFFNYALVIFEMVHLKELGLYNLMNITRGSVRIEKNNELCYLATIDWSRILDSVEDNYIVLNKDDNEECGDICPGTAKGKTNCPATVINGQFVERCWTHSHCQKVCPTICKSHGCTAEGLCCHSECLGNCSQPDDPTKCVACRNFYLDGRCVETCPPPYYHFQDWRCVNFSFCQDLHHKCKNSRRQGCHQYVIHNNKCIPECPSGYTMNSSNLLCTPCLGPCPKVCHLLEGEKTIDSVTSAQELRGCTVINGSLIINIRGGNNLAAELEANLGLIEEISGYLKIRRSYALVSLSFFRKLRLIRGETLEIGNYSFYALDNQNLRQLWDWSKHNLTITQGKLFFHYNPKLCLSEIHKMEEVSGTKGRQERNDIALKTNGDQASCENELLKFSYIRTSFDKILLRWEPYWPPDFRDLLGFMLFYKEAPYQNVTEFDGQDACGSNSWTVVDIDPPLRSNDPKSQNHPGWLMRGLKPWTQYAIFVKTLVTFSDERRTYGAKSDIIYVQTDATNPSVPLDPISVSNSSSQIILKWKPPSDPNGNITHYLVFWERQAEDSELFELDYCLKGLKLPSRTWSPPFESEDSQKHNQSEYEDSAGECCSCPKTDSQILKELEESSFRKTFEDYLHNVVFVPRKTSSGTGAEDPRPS
T1 sequence (P06213 763-1382 partner limits assumed): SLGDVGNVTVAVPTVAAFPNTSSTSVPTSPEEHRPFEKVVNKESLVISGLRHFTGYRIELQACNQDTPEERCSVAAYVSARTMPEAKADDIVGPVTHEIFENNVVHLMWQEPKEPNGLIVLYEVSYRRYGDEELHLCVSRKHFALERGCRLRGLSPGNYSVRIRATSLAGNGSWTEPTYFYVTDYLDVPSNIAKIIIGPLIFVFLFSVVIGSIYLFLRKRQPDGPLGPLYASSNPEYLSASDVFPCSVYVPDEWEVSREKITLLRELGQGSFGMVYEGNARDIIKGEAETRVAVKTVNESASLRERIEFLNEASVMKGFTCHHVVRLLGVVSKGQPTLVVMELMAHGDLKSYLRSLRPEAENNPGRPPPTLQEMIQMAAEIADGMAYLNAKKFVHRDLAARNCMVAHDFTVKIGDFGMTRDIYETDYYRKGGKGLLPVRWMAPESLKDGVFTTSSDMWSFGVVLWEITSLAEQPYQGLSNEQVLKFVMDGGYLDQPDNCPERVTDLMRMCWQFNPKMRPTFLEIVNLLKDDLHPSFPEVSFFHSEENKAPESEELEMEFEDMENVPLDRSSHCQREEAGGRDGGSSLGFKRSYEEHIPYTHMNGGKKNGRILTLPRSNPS

## A14E, B16E, B25H, B29K (N^ε-eicosanedioyl-gGlu-2xOEG), DesB30 human insulin analog [Insulin-a1, reference compound]
Insulin receptor B; 0% HSA
  EC50: 0.23 µM
  Relative HI activity: 0.54%
Insulin receptor B; 1.5% HSA
  EC50: 5.02 µM
  Relative HI activity: 0.05%
Insulin receptor B
  Relative 0% HSA activity: 4.58%
[1]
  AUClast: 7.55 µg·h/mL
  T1/2: 15.3 ± 4.8 h
Normal C57BL/6 mice; 0 h (before administration), single S.C., Degludec 200 nmol/Kg, others 1400 nmol/Kg
  blood glucose: 7.8 ± 1.1
Normal C57BL/6 mice; 0.25 h after single S.C., Degludec 200 nmol/Kg, others 1400 nmol/Kg
  blood glucose: 8.8 ± 1.4
Normal C57BL/6 mice; 0.5 h after single S.C., Degludec 200 nmol/Kg, others 1400 nmol/Kg
  blood glucose: 6.6 ± 0.7
Normal C57BL/6 mice
  blood glucose compared with the control group: decreased significantly
Normal C57BL/6 mice; 1 h after single S.C., Degludec 200 nmol/Kg, others 1400 nmol/Kg
  blood glucose: 5.6 ± 0.7
Normal C57BL/6 mice; 2 h after single S.C., Degludec 200 nmol/Kg, others 1400 nmol/Kg
  blood glucose: 4.4 ± 0.7
Normal C57BL/6 mice; 4 h after single S.C., Degludec 200 nmol/Kg, others 1400 nmol/Kg
  blood glucose: 3.6 ± 0.7
Normal C57BL/6 mice; 6 h after single S.C., Degludec 200 nmol/Kg, others 1400 nmol/Kg
  blood glucose: 3.8 ± 0.4
Normal C57BL/6 mice; 8 h after single S.C., Degludec 200 nmol/Kg, others 1400 nmol/Kg
  blood glucose: 3.6 ± 0.7
Normal C57BL/6 mice; 10 h after single S.C., Degludec 200 nmol/Kg, others 1400 nmol/Kg
  blood glucose: 3.4 ± 0.7
Normal C57BL/6 mice; 24 h after single S.C., Degludec 200 nmol/Kg, others 1400 nmol/Kg
  blood glucose: 2.9 ± 0.7
Normal C57BL/6 mice; 48 h after single S.C., Degludec 200 nmol/Kg, others 1400 nmol/Kg
  blood glucose: 4.9 ± 1.5
Normal C57BL/6 mice; 72 h after single S.C., Degludec 200 nmol/Kg, others 1400 nmol/Kg
  blood glucose: 7.3 ± 1.3
Normal C57BL/6 mice; 96 h after single S.C., Degludec 200 nmol/Kg, others 1400 nmol/Kg
  blood glucose: 7.8 ± 0.6
Normal C57BL/6 mice; [7]
  effective blood glucose control time: 72 h
  time after administration at which blood glucose reached the lowest level: 24 h
  time after administration at which blood glucose returned to normal: 48 h
[2]
  AUClast: 10 µg·h/mL
  T1/2: 14.3 h
[3]
  AUClast: 10.3 µg·h/mL
  MRTINF_obs: 34.1 h
  T1/2: 21 h
[4]; 1400 nmol/Kg S.C., Insulin-a1 each administration, Insulin-a3 first and second administrations
  time after administration at which blood glucose reached the lowest level: 24 h
[4]; 1400 nmol/Kg S.C., after each administration
  time after administration at which blood glucose reached the normal level: 72 h
[4]; Day 0 (1st administration)
  random blood glucose: 33.3 ± 0.1
[4]; Day 1
  random blood glucose: 22.5 ± 9.6
[4]; Day 4 (2nd administration)
  random blood glucose: 31.1 ± 2.3
[4]; Day 5
  random blood glucose: 15.6 ± 6.6
[4]; Day 9 (3rd administration)
  random blood glucose: 28.4 ± 4.9
[4]; Day 10
  random blood glucose: 12.2 ± 7.9
[4]; Day 14 (4th administration)
  random blood glucose: 28.4 ± 5.9
[4]; Day 18
  random blood glucose: 26.2 ± 5.7
[4]; repeated administration, C57BL6 mice modeled by STZ
  time the effective glucose control effect can be maintained: 3 days/time

## A14E, B16H, B25H, B29K (N^ε-eicosandioyl-gGlu-2xOEG), DesB30 human insulin analog [Icodec, reference compound]
[5]
  AUClast: 35.7 ± 0.12 µg·h/mL
  T1/2: 35.7 ± 6.7 h
Insulin receptor B; 0% HSA
  EC50: 0.0772 µM
  Relative HI activity: 1.60%
Insulin receptor B; 1.5% HSA
  EC50: 1.48 µM
  Relative HI activity: 0.17%
Insulin receptor B
  Relative 0% HSA activity: 5.23%
[6]; 250 nmol/Kg S.C. three times, Day 0 (1st)
  random blood glucose: 32.5 ± 2.2
[6]; 250 nmol/Kg S.C. three times, Day 1
  random blood glucose: 25.7 ± 4.2
[6]; 250 nmol/Kg S.C. three times, Day 4 (2nd)
  random blood glucose: 31.3 ± 2.6
[6]; 250 nmol/Kg S.C. three times, Day 5
  random blood glucose: 25.1 ± 3.2
[6]; 250 nmol/Kg S.C. three times, Day 9 (3rd)
  random blood glucose: 31.8 ± 2.2
[6]; 250 nmol/Kg S.C. three times, Day 10
  random blood glucose: 17.2 ± 6.8
[6]; 250 nmol/Kg S.C. three times, Day 14
  random blood glucose: 30.6 ± 4.6
[6]; 500 nmol/Kg S.C. three times, Day 0 (1st)
  random blood glucose: 32.5 ± 1.6
[6]; 500 nmol/Kg S.C. three times, Day 1
  random blood glucose: 20.3 ± 6.3
[6]; 500 nmol/Kg S.C. three times, Day 4 (2nd)
  random blood glucose: 30.6 ± 2.6
[6]; 500 nmol/Kg S.C. three times, Day 5
  random blood glucose: 19.5 ± 5.8
[6]; 500 nmol/Kg S.C. three times, Day 9 (3rd)
  random blood glucose: 27.0 ± 7.1
[6]; 500 nmol/Kg S.C. three times, Day 10
  random blood glucose: 15.9 ± 6.0
[6]; 500 nmol/Kg S.C. three times, Day 14
  random blood glucose: 33.0 ± 0.9
[6]; 1000 nmol/Kg S.C. three times, Day 0 (1st)
  random blood glucose: 30.8 ± 2.9
[6]; 1000 nmol/Kg S.C. three times, Day 1
  random blood glucose: 20.4 ± 4.6
[6]; 1000 nmol/Kg S.C. three times, Day 4 (2nd)
  random blood glucose: 31.6 ± 2.1
[6]; 1000 nmol/Kg S.C. three times, Day 5
  random blood glucose: 12.8 ± 5.4
[6]; 1000 nmol/Kg S.C. three times, Day 9 (3rd)
  random blood glucose: 29.7 ± 3.7
[6]; 1000 nmol/Kg S.C. three times, Day 10
  random blood glucose: 10.1 ± 6.4
[6]; 1000 nmol/Kg S.C. three times, Day 14
  random blood glucose: 27.7 ± 4.6
Normal C57BL/6 mice
  blood glucose compared with the control group: decreased significantly
Normal C57BL/6 mice; [7]
  effective blood glucose control time: 96 h
  time after administration at which blood glucose reached the lowest level: 48 h
[3]
  AUClast: 6.56 µg·h/mL
  MRTINF_obs: 30.5 h
  T1/2: 16.7 h

Reference: patent US20240374692A1, “A NOVEL ACYLATED INSULIN ANALOG” (SUNSHINE LAKE PHARMA CO., LTD., priority 2021, published 2024)
